In article PMC11725774 (Cancer Research Communications, 2025):

Assay: Plasma protein binding
Format: in vitro ADME
Details: mouse, rat, dog, and human plasma

Q: For Cc1ccc2c(-c3nc(Nc4cc(CN5C[C@@H](C)N[C@@H](C)C5)cc(C5CC5)c4)ncc3Cl)c[nH]c2c1 [TUS, Tuspetinib], which Plasma protein binding is on record?
A: high
